In article PMC12521730, “Quantitative dual-isotope preclinical SPECT/CT imaging and biodistribution of the mercury-197m/g theranostic pair with [^197m/gHg]HgCl2 and a [^197m/gHg]Hg-tetrathiol complex as a platform for radiopharmaceutical development” (EJNMMI Radiopharmacy and Chemistry, 2025):

Experiment: Ex vivo biodistribution (gamma counter)
Assay type: in vivo, healthy male C57BL/6 mice
Settings: Hg-197g, 2 h post administration
Experimental: For animal injection, the tracer was prepared at high molar activity. Radiolabeling of H4Tetrathiol (10^–2 M in DMSO; 40 μL for imaging, 20 μL for bioD) (or DMSO, for [^197m/gHg]HgCl2 mice) with [^197m/gHg]HgCl2 (imaging: 26.7 MBq total m + g, 62 μL; bioD: 13.04 MBq total m + g, 31 μL) was performed in a mixture of ammonium acetate buffer (1 M; pH 7; 198 μL for imaging or 149 μL for bioD) and 6 M NaOH (72 μL or 38 μL required to achieve a pH of 7.5 after addition of activity, for imaging or BioD labeling, respectively). The reaction was allowed to stand for 1 h at 37 °C and quantitative (> 99%) non-isolated percentage radiochemical yield (%RCY) was confirmed via the iTLC methods mentioned above. Further, 100 µL of the reaction was diluted with 50 µL of PBS Tween-20 (0.01 M sodium phosphate, 0.15 M NaCl, 0.05% Tween-20) for imaging mice, or 50 µL of the reaction was diluted with 100 µL of PBS Tween-20 for BioD mice. The tracers were prepared immediately before injection to avoid radiolysis and minimize the tracer loss to any surfaces due to its lipophilicity. The injected doses of each isomer, ^197mHg and ^197gHg, were quantified by measuring an aliquot of known volume of each tracer preparation via HPGe gamma spectroscopy and decay corrected for time of injection using the Eqs. (1) and (2).
The study was conducted in compliance with the guidelines set by the Canadian Council on Animal Care (CCAC) and approved by the Animal Care Committee (ACC) at the University of British Columbia (A20-0132). A total of eight healthy male C57BL/6 mice weighing approximately 30 g for group 1 and 25 g for group 2 were used in the study. The mice were divided into two experimental groups: group 1 (n = 4) received free [^197m/gHg]HgCl2, while group 2 (n = 4) received [^197m/gHg]Hg-Tetrathiol. Within each group, one mouse was allocated for imaging, while the rest were designated for ex vivo biodistribution analysis. For SPECT imaging, the designated mice were anesthetized using isoflurane via a precision vaporizer. […] Once anesthetized, each imaging mouse received an intravenous (IV) injection via the lateral tail vein of 150 μL of [^197m/gHg]HgCl2 (0.492 MBq ^197mHg + 3.171 MBq ^197gHg) or [^197m/gHg]Hg-Tetrathiol (0.899 MBq ^197mHg + 4.230 MBq ^197gHg) in PBS Tween-20 (0.01 M Na Phosphate, 0.15 M NaCl, 0.05% Tween-20).
Mice received an IV injection of [^197m/gHg]HgCl2 (0.275 MBq ^197mHg + 1.758 MBq ^197gHg, 150 μL) or [^197m/gHg]Hg-Tetrathiol (0.384 MBq ^197mHg + 1.733 MBq ^197gHg, 150 μL) (n = 3 per group) via the lateral tail vein using a Tailveiner restrainer. After the injection, the mice were returned to their experimental cages and allowed unrestricted movement. Biodistribution studies were conducted 2 h after administration. Mice were humanely euthanized with an overdose of isoflurane followed by cardiac puncture to collect blood pool activity. The organs of interest were fully extracted, cleaned of blood without rinsing, weighed, and analysed for radioactivity using a calibrated gamma counter with the 55–93 keV energy window for ^197gHg and the 110–160 keV energy window for ^197mHg (Packard Cobra II, Perkin Elmer, Waltham, MA, USA). The stomach and intestines were carefully cleaned prior to analysis to remove residual contents. For tissues and fluids that could not be fully removed (muscle, blood and bone) activity values were extrapolated based on standardised organ weights for age- and sex-matched mice tables to ensure accurate normalization (Davies and Morris [1993]; Foster et al. [2014]). The stomach and whole intestines were cleaned before analysis. The radioactivity measurements were decay corrected for time of injection using the Eqs. (1) and (2). The results are reported as the percentage of the injected activity per gram of tissue (%IA/g) and percentage of the injected activity per tissue (%IA/organ).

[Cl][Hg][Cl] [[^197m/gHg]HgCl2]
Animal 1 (%IA/Organ): bladder: 0.10 %IA/Organ
Animal 1 (%IA/Organ): blood: 7.19 %IA/Organ
Animal 1 (%IA/Organ): bone: 4.96 %IA/Organ
Animal 1 (%IA/Organ): brain: 0.08 %IA/Organ
Animal 1 (%IA/Organ): feces: 0.04 %IA/Organ
Animal 1 (%IA/Organ): heart: 0.39 %IA/Organ
Animal 1 (%IA/Organ): kidneys: 51.84 %IA/Organ
Animal 1 (%IA/Organ): large intestine: 0.85 %IA/Organ
Animal 1 (%IA/Organ): liver: 11.53 %IA/Organ
Animal 1 (%IA/Organ): lungs: 0.87 %IA/Organ
Animal 1 (%IA/Organ): muscle: 12.34 %IA/Organ
Animal 1 (%IA/Organ): pancreas: 0.32 %IA/Organ
Animal 1 (%IA/Organ): small intestine: 0.99 %IA/Organ
Animal 1 (%IA/Organ): spleen: 0.47 %IA/Organ
Animal 1 (%IA/Organ): stomach: 0.29 %IA/Organ
Animal 1 (%IA/Organ): tail: 4.00 %IA/Organ
Animal 1 (%IA/Organ): urine: 1.57 %IA/Organ
Animal 1 (%IA/g) g: bladder: 1.28 %IA/g
Animal 1 (%IA/g) g: blood: 4.25 %IA/g
Animal 1 (%IA/g) g: bone: 2.26 %IA/g
Animal 1 (%IA/g) g: brain: 0.19 %IA/g
Animal 1 (%IA/g) g: feces: 0.96 %IA/g
Animal 1 (%IA/g) g: heart: 2.62 %IA/g
Animal 1 (%IA/g) g: kidneys: 110 %IA/g
Animal 1 (%IA/g) g: large intestine: 3.42 %IA/g
Animal 1 (%IA/g) g: lungs: 5.68 %IA/g
Animal 1 (%IA/g) g: muscle: 0.94 %IA/g
Animal 1 (%IA/g) g: pancreas: 1.76 %IA/g
Animal 1 (%IA/g) g: small intestine: 4.46 %IA/g
Animal 1 (%IA/g) g: spleen: 5.78 %IA/g
Animal 1 (%IA/g) g: stomach: 2.45 %IA/g
Animal 1 (%IA/g) g: tail: 7.68 %IA/g
Animal 1 (%IA/g) g: urine: 5.10 %IA/g
Animal 2 (%IA/Organ): bladder: 0.06 %IA/Organ
Animal 2 (%IA/Organ): blood: 5.88 %IA/Organ
Animal 2 (%IA/Organ): bone: 4.05 %IA/Organ
Animal 2 (%IA/Organ): brain: 0.04 %IA/Organ
Animal 2 (%IA/Organ): feces: 0.02 %IA/Organ
Animal 2 (%IA/Organ): heart: 0.21 %IA/Organ
Animal 2 (%IA/Organ): kidneys: 44.76 %IA/Organ
Animal 2 (%IA/Organ): large intestine: 0.60 %IA/Organ
Animal 2 (%IA/Organ): liver: 6.34 %IA/Organ
Animal 2 (%IA/Organ): lungs: 0.50 %IA/Organ
Animal 2 (%IA/Organ): muscle: 6.72 %IA/Organ
Animal 2 (%IA/Organ): pancreas: 0.22 %IA/Organ
Animal 2 (%IA/Organ): small intestine: 0.66 %IA/Organ
Animal 2 (%IA/Organ): spleen: 0.25 %IA/Organ
Animal 2 (%IA/Organ): stomach: 0.18 %IA/Organ
Animal 2 (%IA/Organ): tail: 2.34 %IA/Organ
Animal 2 (%IA/Organ): urine: 0.04 %IA/Organ
Animal 2 (%IA/g) g: bladder: 2.73 %IA/g
Animal 2 (%IA/g) g: blood: 3.53 %IA/g
Animal 2 (%IA/g) g: bone: 1.87 %IA/g
Animal 2 (%IA/g) g: brain: 0.10 %IA/g
Animal 2 (%IA/g) g: feces: 0.42 %IA/g
Animal 2 (%IA/g) g: heart: 1.60 %IA/g
Animal 2 (%IA/g) g: kidneys: 107 %IA/g
Animal 2 (%IA/g) g: large intestine: 2.61 %IA/g
Animal 2 (%IA/g) g: liver: 5.13 %IA/g
Animal 2 (%IA/g) g: lungs: 3.11 %IA/g
Animal 2 (%IA/g) g: muscle: 0.52 %IA/g
Animal 2 (%IA/g) g: pancreas: 1.31 %IA/g
Animal 2 (%IA/g) g: small intestine: 2.72 %IA/g
Animal 2 (%IA/g) g: spleen: 3.43 %IA/g
Animal 2 (%IA/g) g: stomach: 1.70 %IA/g
Animal 2 (%IA/g) g: tail: 4.62 %IA/g
Animal 2 (%IA/g) g: urine: 3.81 %IA/g
Animal 3 (%IA/Organ): bladder: 0.03 %IA/Organ
Animal 3 (%IA/Organ): blood: 5.49 %IA/Organ
Animal 3 (%IA/Organ): bone: 3.89 %IA/Organ
Animal 3 (%IA/Organ): brain: 0.05 %IA/Organ
Animal 3 (%IA/Organ): feces: 0.09 %IA/Organ
Animal 3 (%IA/Organ): heart: 0.20 %IA/Organ
Animal 3 (%IA/Organ): kidneys: 46.92 %IA/Organ
Animal 3 (%IA/Organ): large intestine: 0.43 %IA/Organ
Animal 3 (%IA/Organ): liver: 6.61 %IA/Organ
Animal 3 (%IA/Organ): lungs: 0.50 %IA/Organ
Animal 3 (%IA/Organ): muscle: 6.84 %IA/Organ
Animal 3 (%IA/Organ): pancreas: 0.25 %IA/Organ
Animal 3 (%IA/Organ): small intestine: 0.62 %IA/Organ
Animal 3 (%IA/Organ): spleen: 0.22 %IA/Organ
Animal 3 (%IA/Organ): stomach: 0.18 %IA/Organ
Animal 3 (%IA/Organ): tail: 2.23 %IA/Organ
Animal 3 (%IA/Organ): urine: 0.63 %IA/Organ
Animal 3 (%IA/g) g: bladder: 1.50 %IA/g
Animal 3 (%IA/g) g: blood: 3.33 %IA/g
Animal 3 (%IA/g) g: bone: 1.79 %IA/g
Animal 3 (%IA/g) g: brain: 0.11 %IA/g
Animal 3 (%IA/g) g: feces: 2.78 %IA/g
Animal 3 (%IA/g) g: heart: 1.46 %IA/g
Animal 3 (%IA/g) g: kidneys: 108 %IA/g
Animal 3 (%IA/g) g: large intestine: 2.41 %IA/g
Animal 3 (%IA/g) g: liver: 4.96 %IA/g
Animal 3 (%IA/g) g: lungs: 3.44 %IA/g
Animal 3 (%IA/g) g: muscle: 0.53 %IA/g
Animal 3 (%IA/g) g: pancreas: 1.39 %IA/g
Animal 3 (%IA/g) g: small intestine: 2.89 %IA/g
Animal 3 (%IA/g) g: spleen: 2.94 %IA/g
Animal 3 (%IA/g) g: stomach: 1.57 %IA/g
Animal 3 (%IA/g) g: tail: 4.40 %IA/g
Animal 3 (%IA/g) g: urine: 3.90 %IA/g
Animal 4 (%IA/Organ): bladder: 0.07 %IA/Organ
Animal 4 (%IA/Organ): blood: 4.67 %IA/Organ
Animal 4 (%IA/Organ): bone: 3.74 %IA/Organ
Animal 4 (%IA/Organ): brain: 0.05 %IA/Organ
Animal 4 (%IA/Organ): feces: 0.07 %IA/Organ
Animal 4 (%IA/Organ): heart: 0.21 %IA/Organ
Animal 4 (%IA/Organ): kidneys: 49.72 %IA/Organ
Animal 4 (%IA/Organ): large intestine: 0.41 %IA/Organ
Animal 4 (%IA/Organ): liver: 6.62 %IA/Organ
Animal 4 (%IA/Organ): lungs: 0.46 %IA/Organ
Animal 4 (%IA/Organ): muscle: 6.43 %IA/Organ
Animal 4 (%IA/Organ): pancreas: 0.20 %IA/Organ
Animal 4 (%IA/Organ): small intestine: 0.54 %IA/Organ
Animal 4 (%IA/Organ): spleen: 0.32 %IA/Organ
Animal 4 (%IA/Organ): stomach: 0.17 %IA/Organ
Animal 4 (%IA/Organ): tail: 1.77 %IA/Organ
Animal 4 (%IA/Organ): urine: 0.38 %IA/Organ
Animal 4 (%IA/g) g: bladder: 2.90 %IA/g
Animal 4 (%IA/g) g: blood: 3.00 %IA/g
Animal 4 (%IA/g) g: bone: 1.85 %IA/g
Animal 4 (%IA/g) g: brain: 0.12 %IA/g
Animal 4 (%IA/g) g: feces: 1.01 %IA/g
Animal 4 (%IA/g) g: heart: 1.49 %IA/g
